Residue numbers refer to the chain shown, from its start.
What was measured:
Set-up in all cases: WT (1–553); expressed in transfected cells
[1] = target: T1, GLP-2R R242^ECL1E (Homo sapiens, UniProt O95838, R242E); assay: radioligand competition binding, R242^ECL1E; conditions: COS-7, R242^ECL1E; [^125I]GLP-2(1–33, M10Y) 10–15 pM, 4 h, 4 °C; n ≥ 3 in duplicate
T1 sequence (O95838 1-553 R242E): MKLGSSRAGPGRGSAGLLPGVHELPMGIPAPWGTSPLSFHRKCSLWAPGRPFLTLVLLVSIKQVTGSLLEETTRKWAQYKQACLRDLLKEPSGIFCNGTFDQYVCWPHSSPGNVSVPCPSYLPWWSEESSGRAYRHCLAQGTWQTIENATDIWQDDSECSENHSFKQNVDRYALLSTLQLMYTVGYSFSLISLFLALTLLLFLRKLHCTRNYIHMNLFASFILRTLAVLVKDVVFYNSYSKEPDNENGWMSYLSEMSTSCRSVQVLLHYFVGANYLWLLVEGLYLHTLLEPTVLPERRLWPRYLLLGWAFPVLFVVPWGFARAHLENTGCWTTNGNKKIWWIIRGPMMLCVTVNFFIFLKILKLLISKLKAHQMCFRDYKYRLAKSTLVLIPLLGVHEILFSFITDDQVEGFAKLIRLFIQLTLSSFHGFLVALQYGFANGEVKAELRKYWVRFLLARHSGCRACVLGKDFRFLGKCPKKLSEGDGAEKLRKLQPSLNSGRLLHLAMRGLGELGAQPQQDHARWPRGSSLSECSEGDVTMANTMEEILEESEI
Method: (§1) A stepwise oxidation reaction was performed by addition of 6 aliquots of 5 µL ChloramineT (30 µL/mL) with a 1-min interval during constant stirring. The reaction was terminated by the addition of 400 µL phase A (0.1% trifluoracetic acid) before being fractionated into 1 mL volume by reverse-phase high-performance liquid chromatography (RP-HPLC, Waters 600 SimiPrep system) on a C18 column. The iodinated protein was […] by increasing concentrations of phase B (Acetonitrile + 0.1% TFA) and tested for competitive binding ability.
(§2) One day before transfection, the COS-7 cells were seeded in 75 cm^2 culture flasks (3 million cells/flask) in DMEM, containing 3.9 g/L NaHCO3 and supplemented with 10% FBS, 1% L-glutamine, 180 units/mL penicillin and 45 µg/mL streptomycin. After an overnight culture at 37 °C, 10% CO2 and 95% air humidity, the cells were transiently transfected with different GLP-2R constructs or pcDNA3.1 vector as previously described.[52] Following 24-h incubation, the cells were transferred to Costa® microtiter plates (150,000 cells/well, PerkinElmer) to achieve a 5%–10% specific binding. […] The cells were then washed twice in binding buffer (4 °C), lysed and counted for radioactivity using a Wallac Gamma Counter (PerkinElmer).

[2] = target: T2, GLP-2R H268^3.37A (Homo sapiens, UniProt O95838, H268A); assay: radioligand competition binding, H268^3.37A; conditions: COS-7, H268^3.37A; [^125I]GLP-2(1–33, M10Y) 10–15 pM, 4 h, 4 °C; mean ± SEM, n ≥ 3 in duplicate
T2 sequence (O95838 1-553 H268A): T1 sequence (O95838 1-553 R242E) with E242R, H268A
Method: as §1, §2

[3] = target: T3, GLP-2R W249^ECL1A (Homo sapiens, UniProt O95838, W249A); assay: radioligand competition binding, W249^ECL1A; conditions: COS-7, W249^ECL1A; [^125I]GLP-2(1–33, M10Y) 10–15 pM, 4 h, 4 °C; mean ± SEM, n ≥ 3 in duplicate
T3 sequence (O95838 1-553 W249A): T1 sequence (O95838 1-553 R242E) with E242R, W249A
Method: as §1, §2

| SMILES | % Binding of WT [1] | % Binding of WT [2] [%] | % Binding of WT [3] [%] |
| --- | --- | --- | --- |
| CC[C@H](C)[C@H](NC(=O)[C@H](Cc1ccccc1)NC(=O)[C@H](CC(=O)O)NC(=O)[C@H](CCCNC(=N)N)NC(=O)[C@H](C)NC(=O)[C@H](C)NC(=O)[C@H](CC(C)C)NC(=O)[C@H](CC(N)=O)NC(=O)[C@H](CC(=O)O)NC(=O)[C@H](CC(C)C)NC(=O)[C@@H](NC(=O)[C@@H](NC(=O)[C@H](CC(N)=O)NC(=O)[C@H](CCSC)NC(=O)[C@H](CCC(=O)O)NC(=O)[C@H](CC(=O)O)NC(=O)[C@H](CO)NC(=O)[C@H](Cc1ccccc1)NC(=O)[C@H](CO)NC(=O)CNC(=O)[C@H](CC(=O)O)NC(=O)[C@H](C)NC(=O)[C@@H](N)Cc1c[nH]cn1)[C@@H](C)O)[C@@H](C)CC)C(=O)N[C@@H](CC(N)=O)C(=O)N[C@@H](Cc1c[nH]c2ccccc12)C(=O)N[C@@H](CC(C)C)C(=O)N[C@H](C(=O)N[C@@H](CCC(N)=O)C(=O)N[C@H](C(=O)N[C@@H](CCCCN)C(=O)N[C@H](C(=O)N[C@H](C(=O)N[C@@H](CC(=O)O)C(=O)O)[C@@H](C)O)[C@@H](C)CC)[C@@H](C)O)[C@@H](C)CC [Human GLP-2 (1–33)] | N.B. | 2.1 ± 0.8 | 2.2 ± 1.2 |
| CC[C@H](C)[C@H](NC(=O)[C@H](Cc1ccccc1)NC(=O)[C@H](CC(=O)O)NC(=O)[C@H](CCCNC(=N)N)NC(=O)[C@H](C)NC(=O)[C@H](C)NC(=O)[C@H](CC(C)C)NC(=O)[C@H](CC(N)=O)NC(=O)[C@H](CC(=O)O)NC(=O)[C@H](CC(C)C)NC(=O)[C@@H](NC(=O)[C@@H](NC(=O)[C@H](CC(N)=O)NC(=O)[C@H](CCSC)NC(=O)[C@H](CCC(=O)O)NC(=O)[C@H](CC(=O)O)NC(=O)[C@H](CO)NC(=O)[C@H](Cc1ccccc1)NC(=O)[C@H](CO)NC(=O)CNC(=O)[C@H](CC(=O)O)NC(=O)CNC(=O)[C@@H](N)Cc1c[nH]cn1)[C@@H](C)O)[C@@H](C)CC)C(=O)N[C@@H](CC(N)=O)C(=O)N[C@@H](Cc1c[nH]c2ccccc12)C(=O)N[C@@H](CC(C)C)C(=O)N[C@H](C(=O)N[C@@H](CCC(N)=O)C(=O)N[C@H](C(=O)N[C@@H](CCCCN)C(=O)N[C@H](C(=O)N[C@H](C(=O)N[C@@H](CC(=O)O)C(=O)O)[C@@H](C)O)[C@@H](C)CC)[C@@H](C)O)[C@@H](C)CC [Teduglutide] | N.B. | 0.7 ± 1.8 | 2.9 ± 2.0 |
